Laboratory results from patent publication EP1082963A1, “REMEDIES FOR JOINT DISEASES BOUND TO HYALURONIC ACID” (CHUGAI SEIYAKU KABUSHIKI KAISHA, priority 1998, dated 1999).

Target: gelatinase B (Homo sapiens, UniProt P14780)
Assay: Gelatinase B inhibiting activity of synovial fluid recovered after intraarticular administration
Format: in vivo, rats
Parameters: purchased Roche Diagnostics Co., Ltd
Details: Fig. 7
Method: The following agents (1 to 3) were administered into right knee joints of 9-10 week old rats (n=4 to 10) and the animals were sacrificed at time intervals; the joint cavities were washed with a total 0.5 ml of a physiological saline to recover a synovial fluid. • Agent 1: 30 nmol of compound 1 • Agent 2: a mixture of 30 nmol of compound 1 and 0.3 mg of HA • Agent 3: 0.3 mg of "conjugate 4" (having compound 1 bound in an amount equivalent to 30 nmol)
By using a kit for measuring gelatinase activity manufactured by Roche Diagnostics, the inhibiting activity of the synovial fluid against gelatinase B was calculated according to the following formula. Gelatinase B Inhibition Activity (%) = [(Enzymatic Activity in the Absence of Synovial Fluid - Enzymatic Activity in the Presence of Added Synovial Fluid)/Enzymatic Activity in the Absence of Synovial Fluid] x 100 [formula]
The results were shown by a mean value ± standard deviation. The gelatinase B inhibiting activity of the synovial fluid from the group administered compound 1 alone and the group administered the mixture of compound 1 and HA decreased to 20% two hours after administration and to less than 5% 17 hours after administration while in the group administered "conjugate 4" about 50% of the gelatinase B inhibiting activity remained 17 hours after administration.

Sequence of gelatinase B (P14780 94-707, species assumed): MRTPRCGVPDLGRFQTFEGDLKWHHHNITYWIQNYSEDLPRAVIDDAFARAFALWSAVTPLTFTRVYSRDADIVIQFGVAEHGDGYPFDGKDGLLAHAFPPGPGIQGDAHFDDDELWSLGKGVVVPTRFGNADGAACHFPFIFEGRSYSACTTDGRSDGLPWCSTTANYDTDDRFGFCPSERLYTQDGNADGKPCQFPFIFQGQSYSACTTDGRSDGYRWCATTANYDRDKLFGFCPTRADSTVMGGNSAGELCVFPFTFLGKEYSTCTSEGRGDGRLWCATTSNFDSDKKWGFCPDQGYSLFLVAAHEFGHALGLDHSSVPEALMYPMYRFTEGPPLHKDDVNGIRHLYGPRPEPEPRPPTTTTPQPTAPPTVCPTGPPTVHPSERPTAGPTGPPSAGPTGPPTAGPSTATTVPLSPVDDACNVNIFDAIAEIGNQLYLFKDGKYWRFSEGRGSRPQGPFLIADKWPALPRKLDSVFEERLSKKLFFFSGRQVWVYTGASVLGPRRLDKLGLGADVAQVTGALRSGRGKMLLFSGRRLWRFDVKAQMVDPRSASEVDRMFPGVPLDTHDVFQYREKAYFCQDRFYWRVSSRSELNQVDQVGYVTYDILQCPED

gelatinase B inhibiting activity of the synovial fluid (17 hours after administration into rat right knee joint): less than 5% | gelatinase B inhibiting activity of the synovial fluid (two hours after administration into rat right knee joint): 20%
SMILES: CNC(=O)[C@H](Cc1c[nH]c2ccccc12)NC(=O)C(CC(=O)NO)CC(C)C (stereo partly drawn) [compound 1, N-[2-isobutyl-3-(N'-hydroxycarbonylamido)propanoyl]-L-tryptophan methylamide]
